Experimental data published in patent publication US10392347B2, “2,4-dihydroxy-nicotinamides as APJ agonists” (BRISTOL-MYERS SQUIBB COMPANY, priority 2015, dated 2019).

Target: T1, human APJ receptor (Homo sapiens, UniProt P35414)
T1 construct: expressed in transfected cells
T1 sequence (P35414 1-380): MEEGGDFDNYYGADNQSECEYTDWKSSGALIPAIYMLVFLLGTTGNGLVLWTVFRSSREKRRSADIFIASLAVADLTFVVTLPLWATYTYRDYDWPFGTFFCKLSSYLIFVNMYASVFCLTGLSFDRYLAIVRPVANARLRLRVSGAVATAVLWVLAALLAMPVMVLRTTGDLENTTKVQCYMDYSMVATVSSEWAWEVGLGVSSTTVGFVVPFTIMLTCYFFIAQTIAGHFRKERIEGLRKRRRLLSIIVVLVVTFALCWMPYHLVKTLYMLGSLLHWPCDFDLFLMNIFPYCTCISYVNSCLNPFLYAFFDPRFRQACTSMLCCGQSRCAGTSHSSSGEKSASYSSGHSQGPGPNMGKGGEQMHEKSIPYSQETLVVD
Assay: Intracellular cAMP accumulation assay (APJ hcAMP, HTRF)
Type: cell-based
Conditions: APJ cAMP EC50 (nM), Table 1; HEK293 cells stably expressing human APJ, forskolin-stimulated cAMP
Summary of the method: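 Inhibition of forskolin (2 μM)-stimulated cAMP, with […], was measured after 30 min compound exposure at room temperature in stably transfected HEK293 cells. HTRF ratios were converted to cAMP via standard curve, and EC50 values came from variable-slope sigmoidal concentration-response fitting.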

| Compound | EC50 |
| --- | --- |
| CCCCc1[nH]c(=O)c(C(=O)N(C)CCc2ccc(Cl)cc2)c(O)c1-c1c(OC)cccc1OC [Example 27, 6-butyl-N-[2-(4-chlorophenyl)ethyl]-5-(2,6-dimethoxyphenyl)-2,4-dihydroxy-N-methylpyridine-3-carboxamide] | 10 to 100 nM |

Same assay, conditions: Table 1; HEK293 cells stably expressing human APJ, forskolin-stimulated cAMP; read-out: APJ cAMP EC50

| Compound | EC50 |
| --- | --- |
| CCCCc1nc(O)c(C(=O)N2CCN(c3ccncc3)CC2)c(O)c1-c1c(OC)cccc1OC [Example 22, 6-butyl-5-(2,6-dimethoxyphenyl)-3-[4-(pyridin-4-yl)piperazine-1-carbonyl]pyridine-2,4-diol] | 100 to 300 nM |
| CCCCc1nc(O)c(C(=O)N2CCC(c3c[nH]cn3)CC2)c(O)c1-c1c(OC)cccc1OC [Example 55, 6-butyl-5-(2,6-dimethoxyphenyl)-3-[4-(1H-imidazol-4-yl)piperidine-1-carbonyl]pyridine-2,4-diol] | 10 to 100 nM |
| CCCCc1nc(O)c(C(=O)N2CCC3(CC2)OC(=O)Nc2ccccc23)c(O)c1-c1c(OC)cccc1OC [Example 50, 1′-[6-butyl-5-(2,6-dimethoxyphenyl)-2,4-dihydroxypyridine-3-carbonyl]-1,2-dihydrospiro[3,1-benzoxazine-4,4′-piperidine]-2-one] | 10 to 100 nM |
| CCCCc1nc(O)c(C(=O)N2CCN(Cc3ccccc3F)CC2)c(O)c1-c1c(OC)cccc1OC [Example 44, 6-butyl-5-(2,6-dimethoxyphenyl)-3-{4-[(2-fluorophenyl)methyl]piperiazine-1-carbonyl}pyridine-2.4-diol] | 0.01 to 10 nM |
| CCCCc1nc(O)c(C(=O)N2CCC(c3nc4ccccc4s3)CC2)c(O)c1-c1c(OC)cccc1OC [Example 48, 3-[4-(1,3-benzothiazol-2-yl)piperidine-1-carbonyl]-6-butyl-5-(2,6-dimethoxyphenyl)pyridine-2,4-diol] | 10 to 100 nM |
| CCCCc1nc(O)c(C(=O)N2CCN(Cc3ccc(F)cc3)CC2)c(O)c1-c1c(OC)cccc1OC [Example 43, 6-butyl-5-(2,6-dimethoxyphenyl)-3-{4-[(4-fluorophenyl)methyl]piperazine-1-carbonyl}pyridine-2.4-diol] | 0.01 to 10 nM |

Same assay, conditions: Table 3; HEK293 cells stably expressing human APJ, forskolin-stimulated cAMP; read-out: APJ cAMP EC50

| Compound | EC50 |
| --- | --- |
| CCCCc1nc(O)c(C(=O)N2CCC(c3ccc(F)cn3)C2)c(O)c1-c1c(OC)cccc1OC (stereo not drawn) [Example 80, 6-butyl-5-(2,6-dimethoxyphenyl)-3-[3-(5-fluoropyridin-2-yl)pyrrolidine-1-carbonyl]pyridine-2,4-diol] | 0.01 to 10 nM |
| CCCCc1nc(O)c(C(=O)N2CCC(c3ccc(Cl)cn3)C2)c(O)c1-c1c(OC)cccc1OC (stereo not drawn) [Example 75, 6-butyl-3-[3-(5-chloropyridin-2-yl)pyrrolidine-1-carbonyl]-5-(2,6-dimethoxyphenyl)pyridine-2,4-diol] | 0.01 to 10 nM |
| CCOCc1nc(O)c(C(=O)N2CCC(c3ncc(F)cc3F)C2)c(O)c1-c1c(OC)cccc1OC (stereo not drawn) [Example 84, 3-[3-(3,5-difluoropyridin-2-yl)pyrrolidine-1-carbonyl]-5-(2,6-dimethoxyphenyl)-6-(ethoxymethyl)pyridine-2,4-diol] | 0.01 to 10 nM |

Same assay, conditions: Table 4; HEK293 cells stably expressing human APJ, forskolin-stimulated cAMP; read-out: Human cAMP EC50

| Compound | EC50 |
| --- | --- |
| CCCCc1nc(O)c(C(=O)N2CCN(Cc3cccc(C)c3F)CC2)c(O)c1-c1c(OC)cccc1OC [Example 121, 6-butyl-5-(2,6-dimethoxyphenyl)-3-{4-[(2-fluoro-3-methylphenyl)methyl]piperazine-1-carbonyl}pyridine-2,4-diol] | 0.01 to 10 nM |
| COCCc1nc(O)c(C(=O)N2CCN(Cc3cccc(F)c3)CC2)c(O)c1-c1c(OC)cccc1OC [Example 88, 5-(2,6-dimethoxyphenyl)-3-{4-[(3-fluorophenyl)methyl]piperazine-1-carbonyl}-6-(2-methoxyethyl)pyridine-2,4-diol] | 100 to 300 nM |
| CCCCc1nc(O)c(C(=O)N2CCN(Cc3cccc(F)c3F)CC2)c(O)c1-c1cccc(OC)c1OC [Example 154, 6-butyl-3-{4-[(2,3-difluorophenyl)methyl]piperazine-1-carbonyl}-5-(2,3-dimethoxyphenyl)pyridine-2,4-diol] | 0.01 to 10 nM |
| CCCCc1nc(O)c(C(=O)N(CCC)CCc2ccccc2F)c(O)c1-c1c(OC)cccc1OC [Example 117, 6-butyl-5-(2,6-dimethoxyphenyl)-N-[2-(2-fluorophenyl)ethyl]-2,4-dihydroxy-N-propylpyridine-3-carboxamide] | 100 to 300 nM |
| CCOCc1nc(O)c(C(=O)N2CCN(Cc3cccc(Cl)c3Cl)CC2)c(O)c1-c1c(OC)cccc1OC [Example 104, 3-{4-[(2,3-dichlorophenyl)methyl]piperazine-1-carbonyl}-5-(2,6-dimethoxyphenyl)-6-(ethoxymethyl)pyridine-2,4-diol] | 0.01 to 10 nM |
| CCCCc1nc(O)c(C(=O)N2CCN(Cc3cccc(F)c3F)CC2)c(O)c1-c1c(OC)cccc1OC [Example 108, 6-butyl-3-{4-[(2,3-difluorophenyl)methyl]piperazine-1-carbonyl}-5-(2,6-dimethoxyphenyl)pyridine-2,4-diol] | 0.01 to 10 nM |
| CCCCc1nc(O)c(C(=O)N2CCC(Oc3ccc(Cl)cn3)CC2)c(O)c1-c1c(OC)cccc1OC [Example 100, 6-butyl-3-{4-[(5-chloropyridin-2-yl)oxy]piperidine-1-carbonyl}-5-(2,6-dimethoxyphenyl)pyridine-2,4-diol] | 0.01 to 10 nM |
| CCCCc1nc(O)c(C(=O)N2CCN(C(=O)c3cccc(Cl)c3Cl)CC2)c(O)c1-c1c(OC)cccc1OC [Example 153, 6-butyl-3-[4-(2,3-dichlorobenzoyl)piperazine-1-carbonyl]-5-(2,6-dimethoxyphenyl)pyridine-2,4-diol] | 0.01 to 10 nM |
| CCCCc1nc(O)c(C(=O)N2CCN(Cc3ccccn3)CC2)c(O)c1-c1c(OC)cccc1OC [Example 101, 6-butyl-5-(2,6-dimethoxyphenyl)-3-[4-(pyridin-2-ylmethyl)piperazine-1-carbonyl]pyridine-2,4-diol] | 0.01 to 10 nM |
| CCCCc1nc(O)c(C(=O)N2CCN(C(=O)c3cccc(F)c3F)CC2)c(O)c1-c1c(OC)cccc1OC [Example 119, 6-butyl-3-[4-(2,3-difluorobenzoyl)piperazine-1-carbonyl]-5-(2,6-dimethoxyphenyl)pyridine-2,4-diol] | 0.01 to 10 nM |
| CCCCc1nc(O)c(C(=O)N2CC[C@@H](c3ccccc3)C2)c(O)c1-c1cc(OC)ccc1OC [Example 96, 6-butyl-5-(2,5-dimethoxyphenyl)-3-[(3S)-3-phenylpyrrolidine-1-carbonyl]pyridine-2,4-diol] | 0.01 to 10 nM |
| CCCCc1nc(O)c(C(=O)N2CCN(Cc3cccc(Cl)c3Cl)CC2)c(O)c1-c1cc(OC)ccc1OC [Example 103, 6-butyl-3-{4-[(2,3-dichlorophenyl)methyl]piperazine-1-carbonyl}-5-(2,5-dimethoxyphenyl)pyridine-2,4-diol] | 0.01 to 10 nM |
| CCCCc1nc(O)c(C(=O)N2CC(OCc3cccc(F)c3F)C2)c(O)c1-c1c(OC)cccc1OC [Example 116, 6-butyl-3-{3-[(2,3-difluorophenyl)methoxy]azetidine-1-carbonyl}-5-(2,6-dimethoxyphenyl)pyridine-2,4-diol] | 0.01 to 10 nM |

Same assay, conditions: Table 5; HEK293 cells stably expressing human APJ, forskolin-stimulated cAMP; read-out: Human cAMP EC50

| Compound | EC50 |
| --- | --- |
| CCOCc1nc(O)c(C(=O)N2CCC(c3ccccc3F)C2)c(O)c1-c1c(OC)cccc1OC (stereo not drawn) [Example 127, 5-(2,6-dimethoxyphenyl)-6-(ethoxymethyl)-3-[3-(2-fluorophenyl)pyrrolidine-1-carbonyl]pyridine-2,4-diol] | 0.01 to 10 nM |
| COc1cccc(-c2c(-c3csc(C)n3)nc(O)c(C(=O)N3CCC(c4ncc(F)cc4F)C3)c2O)c1 (stereo not drawn) [Example 128, 3-[3-(3,5-difluoropyridin-2-yl)pyrrolidine-1-carbonyl]-5-(3-methoxyphenyl)-6-(2-methyl-1,3-thiazol-4-yl)pyridine-2,4-diol] | 10 to 100 nM |
| CCOCc1nc(O)c(C(=O)N2CCC(c3cccc(F)c3)C2)c(O)c1-c1c(OC)cccc1OC (stereo not drawn) [Example 124, 5-(2,6-dimethoxyphenyl)-6-(ethoxymethyl)-3-[3-(3-fluorophenyl)pyrrolidine-1-carbonyl]pyridine-2,4-diol] | 0.01 to 10 nM |

Same assay, conditions: Table 7; HEK293 cells stably expressing human APJ, forskolin-stimulated cAMP; read-out: Human cAMP EC50

| Compound | EC50 |
| --- | --- |
| CCCCc1nc(O)c(C(=O)N2CCC(c3ncc(F)cc3F)C2)c(O)c1-c1cccc(C(=O)NC(C)C)c1 (stereo not drawn) [Example 145, 3-{2-butyl-5-[3-(3,5-difluoropyridin-2-yl)pyrrolidine-1-carbonyl]-4,6-dihydroxypyridin-3-yl}-N-(propan-2-yl)benzamide] | 0.01 to 10 nM |
| CCCCc1nc(O)c(C(=O)N2CCC(c3ncc(F)cc3F)C2)c(O)c1-c1cccc(OC)c1 (stereo not drawn) [Example 143, 6-butyl-3-[3-(3,5-difluoropyridin-2-yl)pyrrolidine-1-carbonyl]-5-(3-methoxyphenyl)pyridine-2,4-diol] | 0.01 to 10 nM |
| CCCCc1nc(O)c(C(=O)N2CCC(c3ncc(F)cc3F)C2)c(O)c1-c1cccc(OC)c1 (stereo not drawn) [Example 142, 6-butyl-3-[3-(3,5-difluoropyridin-2-yl)pyrrolidine-1-carbonyl]-5-(3-methoxyphenyl)pyridine-2,4-diol] | 0.01 to 10 nM |

Same assay, conditions: Table 8; HEK293 cells stably expressing human APJ, forskolin-stimulated cAMP; read-out: Human cAMP EC50

| Compound | EC50 |
| --- | --- |
| CCNCc1nc(O)c(C(=O)N2CCC(c3ccccc3F)C2)c(O)c1-c1c(OC)cccc1OC (stereo not drawn) [Example 150, 5-(2,6-dimethoxyphenyl)-6-[(ethylamino)methyl]-3-[3-(2-fluorophenyl)pyrrolidine-1-carbonyl]pyridine-2,4-diol] | 10 to 100 nM |
